Data: paper PMC6736837, “^18F-labelled triazolyl-linked argininamides targeting the neuropeptide Y Y1R for PET imaging of mammary carcinoma” (Scientific Reports, 2019)
“Also recorded” adds a separate entry of the source. Values belong to the compound of their own block, whether it stands above or below them.

What was measured:
[1] = Binding to human plasma proteins by gel filtration; format: in vitro ADME; conditions: 37 °C, read-out: Free fraction in plasma
Protocol: The binding of ^18F-labelled compounds to plasma proteins was determined using gel filtration columns(illustra™ MicroSpin™ G-50 Columns, GE Healthcare Life Sciences, Freiburg). An aliquot of the radiotracer (approx. 100 kBq) was added to 200 µL of saline, and 100 µL of human plasma, respectively. Both samples were incubated at 37 °C for 10 min. MicroSpin™ columns were prepared according to the user instruction. Then 25 µL of the incubated radiotracer were given onto the columns and the devices were centrifuged (2000 × g, 2 min). Eluate and solid phase were analysed in the γ-counter (Wallac Wizard). The percentage of unbound radioligand was calculated as %free=cpmsolidphase/cpmsolidphase+cpmeluate . The sample in saline was used as control.

MCF-7-Y1 tumour slices = test: In-vitro autoradiography on MCF-7-Y1 tumour xenograft slices; format: binding, human; conditions: blocking with 1 µM and 10 µM BIBP3226
Protocol: MCF-7-Y1 tumour bearing mice were sacrificed by cervical dislocation under deep isoflurane anesthesia and tumours were excised and subsequently frozen in a hexane/dry ice bath (−70 °C). MCF-7-Y1 tumour slices (14 µm) were prepared on a cryostat microtome HM 500 O (Microm, Walldorf) and thaw-mounted on Histobond® adhesive glass slides (Marienfeld, Lauda-Königshofen).
For autoradiography studies slides were thawed and pre-incubated for 15 min in incubation buffer (50 mM TRIS HCl, pH 7.4, containing 120 mM NaCl, 5 mM MgCl2,) at room temperature. Thereafter, 800 µL of incubation buffer, containing 0.1 MBq of the respective radiotracer were pipetted on the slide and incubated at room temperature for 60 min. For displacement studies BIBP3226 (1 µM or 10 µM) was added to the incubation buffer before pipetting on the slides. Afterwards slides were washed by placing in ice cold incubation buffer (3 × 2 min) followed by short dipping in ice cold distilled water. Slides were carefully dried in a stream of warm air and finally placed on an autoradiography film (Fuji Imaging Plate BAS-IP SR 2025 E, Fujifilm, Düsseldorf) overnight prior to readout (25 µm resolution) on the autoradiograph (HD-CR-35 Bio, Raytest, Straubenhardt) and analysis with the software AIDA (Raytest). Additional sections were stained with hematoxylin and eosin (H&E) for comparison with the autoradiography images.

[2] = Biodistribution in healthy mice; format: in vivo, mouse; conditions: at 30 and 90 min p.i.
Protocol: Biodistribution studies were conducted using female NMRI outbred mice (HsdWin:NMRI) purchased from Envigo (Horst, The Netherlands). Mice were kept in groups of four to five animals in individually ventilated cages in a twelve hours dark/light cycle with unlimited access to water and standard chow. At the age of eight to nine weeks six animals per radiotracer were injected with 2–4 MBq of the respective radiotracer under isoflurane anesthesia. Mice were sacrificed by cervical dislocation 30 or 90 min p.i. of the radiotracer. Blood as well as the organs/tissues lung, liver, kidneys, heart, spleen, brain, muscle, intestines, gall bladder and bones were harvested and analysed in the γ-counter. Samples were weighed and radioactivity in different tissues was calculated as percentage of the total injected dose per gram tissue (%ID/g).

[3] = Octanol-water distribution coefficient logD7.4, shake flask method; format: physicochemical; conditions: 1-octanol/PBS, pH 7.4, PBS/1-octanol, read-out: logD7.4 experimental
Protocol: The lipophilicity of the radioligands was determined by the distribution coefficient logD7.4. The respective radioligand (10 µL, about 25 kBq) was added to a mixture of PBS (500 µL) and 1-octanol (500 µL) and the emulsion was vortexed for 1 min. After centrifugation 3 × 100 µL were taken of each layer and analysed by a γ-counter. The partition coefficient was calculated as logD7.4=log(cpmoctanol/cpmPBS) . Data were expressed as mean values ± SD from three experiments.

[4] = Radiotracer stability in human serum by radio-HPLC; format: in vitro ADME; conditions: 37 °C
Protocol: The stability of ^18F-labelled compounds was determined in human serum. An aliquot of the radiotracer (5–10 MBq) was added to 200 µL human serum and incubated at 37 °C. Aliquots of 15 µL were taken after 5, 10, 15, 30, 45, 60, 120 and 180 min and quenched in 100 µL of 10% aqueous TFA. The samples were centrifuged (20000 × g, 2 min), and the supernatants were analysed by radio-HPLC (Chromolith RP-18e, 100 × 4.6 mm, 4 mL/min, 0–1 min 25% CH3CN (0.1% TFA) in water (0.1% TFA), 1–6 min 25–60%, 6–7 min 60–100%, 7–8 min 100%).

[5] = Radioactive metabolites of Y1R radioligands in mouse blood; format: in vivo
Protocol: Nude mice were anesthetised with isoflurane and injected with the respective radiotracer (3–25 MBq) into the tail vein. After 5 min, animals were sacrificed by cervical dislocation and approx. 100 µL blood were collected from the abdomen and transferred into Li-heparinised Microvettes® (100 LH, Sarstedt). The same volume of aqueous urea (0.8 g/mL) was added and the Microvette® was centrifuged (2000 × g, 5 min). The supernatant was transferred to a 1.5 mL reaction vial, mixed with the same volume of 10% aqueous TFA and centrifuged (20000 × g, 5 min). This step was repeated once. A sample of the resulting supernatant (100 µL) was analysed by radio-HPLC using two methods (Chromolith RP-18e, 100 × 4.6 mm, 4 mL/min, 0–1 min 25% CH3CN (0.1%TFA) in water (0.1%TFA), 1–6 min 25–60%, 6–7 min 60–100%, 7–8 min 100%; Kromasil 100 C8 5 µm, 250 × 4.6 mm, 1.5 mL/min, 1–25 min 20–53.3% CH3CN (0.1% TFA) in water (0.1% TFA), 25–27 min 53.3–80%, 27–28 min 80–100%, 28–32 min 100%).

MCF-7-Y1 tumours = test: Small animal PET in MCF-7-Y1 xenografted nude mice; format: in vivo, mouse; conditions: 45–60 min p.i., blocking by co-injection of BIBP3226 1 mg/kg
Protocol: For the NPY Y1R xenograft model, female NMRI nude mice (HsdCpb:NMRI-Foxn1^nu) were purchased from Envigo (Horst, The Netherlands) at the age of three weeks. Mice were kept in groups of four to five animals in individually ventilated cages in a twelve hours dark/light cycle with unlimited access to water and standard chow. At the age of nine to ten weeks one 17β-estradiol pellet per animal (0.72 mg per pellet, 3 mm diameter) with a 60-day release time (Innovative Research of America, Sarasota, FL, USA) was subcutaneously implanted on the back under isoflurane anesthesia. After three days, approximately 10^6 MCF-7-Y1 tumour cells (in 50 µL PBS) were mixed with Matrigel (50 µL, BD Biosciences, Heidelberg) and then injected subcutaneously at the back. Tumour diameters and weight of the animals were recorded five times a week. Imaging studies were performed four weeks after inoculation of the cells.
Small animal PET scans were performed on an Inveon™ microPET scanner (Siemens Healthcare, Erlangen) under isoflurane anesthesia (3%). Tumour bearing mice (26–35 g, n = 2–3 for each radioligand) were intravenously injected into the tail vein with the respective radiotracer (1.5–4.2 MBq in about 100 µL of saline) under isoflurane anesthesia (3–4%). Static images were acquired for 15 min starting 45 min p.i. of the radiotracer. For displacement studies, the same mice were co-injected with the radiotracer ([^18F]12 and [^18F]13 only) and BIBP3226 (1 mg/kg). Images were corrected for decay and attenuation and MAP (iterative maximum a posteriori) images were reconstructed using the built-in software of the PET scanner. Evaluation of the MAP images was conducted using the software PMOD (version 3.6, PMOD Technologies LLC, Zürich). Regions of interests (ROIs) were drawn and radioactivity concentration within these regions was obtained from the mean values and calculated as percentage of the total injected dose per gram tissue (% ID/g).

Y1R = molecular target: Y1R; design: method as in PMID 28337321; conditions: displacement of [^3H]UR-MK114, SK-N-MC neuroblastoma cells; cited from earlier work
hY5R = molecular target: T1, hY5R (Homo sapiens, UniProt Q15761); conditions: read-out: Kd of the radioligand (Y5R); cited from earlier work
T1 construct: expressed in transfected cells; host or cells: HEC-1b cells (HEC-1b hY5R)
T1 sequence (Q15761 1-445): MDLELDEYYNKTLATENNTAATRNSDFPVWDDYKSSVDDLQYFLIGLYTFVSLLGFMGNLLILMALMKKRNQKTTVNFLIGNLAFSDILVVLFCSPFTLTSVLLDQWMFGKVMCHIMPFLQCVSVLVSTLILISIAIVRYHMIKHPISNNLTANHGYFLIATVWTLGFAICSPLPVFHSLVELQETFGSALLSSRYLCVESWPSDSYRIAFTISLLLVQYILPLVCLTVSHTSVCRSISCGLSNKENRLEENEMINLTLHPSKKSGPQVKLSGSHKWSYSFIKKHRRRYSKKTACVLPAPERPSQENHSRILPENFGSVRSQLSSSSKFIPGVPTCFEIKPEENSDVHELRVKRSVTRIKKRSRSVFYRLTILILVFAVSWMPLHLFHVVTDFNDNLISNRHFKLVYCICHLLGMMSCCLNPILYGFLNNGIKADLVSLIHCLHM

fraction unbound at 10 min [1]: 0.38
kidney uptake [2]: about three times higher
logD [3]: 1.74 ± 0.07
Stability over 3 h in human serum [4]: >99%
radiometabolites in the blood ([5]; mouse): > 90%
stability in the blood in vivo (in words) ([5]; mouse blood samples taken early after radiotracer injection): underwent rapid degradation in the blood
intact radioligand in blood samples ([5]; mouse, 5 min p.i.): 10%
Compound: N/C(=N/C(=O)NCc1cn(CCOCC[18F])nn1)NCCC[C@@H](NC(=O)C(c1ccccc1)c1ccccc1)C(=O)NCc1ccc(O)cc1 [[^18F]12, (2R)‐5‐{[(1Z)‐Amino({[({1‐[2‐(2‐[^18F]fluoroethoxy)ethyl]‐1H‐1,2,3‐triazol‐4‐yl}methyl)carbamoyl]-imino})methyl]amino}‐2‐(2,2‐diphenylacetamido)‐N‐[(4‐hydroxyphenyl)methyl]pentanamide]
specific binding to MCF-7-Y1 tumour slices (autoradiography) (MCF-7-Y1 tumour slices): marked specific binding; also recorded: highest specific binding to Y1R-positive cells and to tumour slices
tumour visualisation / specific tumour accumulation in PET (MCF-7-Y1 tumours): displaceable and thus specific Y1R-mediated tumour acculuation in vivo; also recorded: enhanced and specific tumour uptake; also recorded: highest specific binding to the Y1R-positive tumour in vivo

Compound: NC(N)=NCCC[C@@H](NC(=O)C(c1ccccc1)c1ccccc1)C(=O)NCc1ccc(O)cc1 [BIBP3226]
Ki (Y1R): 1.3 nM

Compound: [^3H]propionyl-pNPY: tritiated radioligand used for competition binding at hY2R and hY5R
Kd (hY5R): 4.8 nM
